Test results from patent US6444617B1, “Fused-heterocycle dicarboxylic acid diamide derivatives or salts thereof, herbicide and usage thereof” (Nihon Nohyaku Co., Ltd., priority 1998, dated 2002).

Legend:
Format in all cases: in vivo
wheat (Wh) = assay: Test Example 3: phytotoxicity to upland crop plants, treatment before emergence; settings: dosage 5 kg/ha
In short: (§1)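 Phytotoxicity scores for soybean and wheat were assigned by a set criterion 14 days after a pre-emergence spray of a liquid preparation containing the test compound at a prescribed concentration.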

soybean plant (So) = assay: as above; settings: dosage 5 kg/ha
In short: as §1

[1] = test system: barnyard grass (Echinochloa crus-galli Beauv.); assay: Test Example 1: herbicidal effect on paddy field weeds before emergence; settings: Dosage 5 kg/ha
In short: (§2)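 Soil in pots is brought to paddy state and seeded with barnyard grass and bulrush; before germination, the soil receives a predetermined dosage of test compound in solution. After twenty-one days, control rate relative to untreated pots is calculated and graded.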

[2] = test system: bulrush (Scirpus juncoides Roxb.); assay: as above; settings: Dosage 5 kg/ha
In short: as §2

[3] = test system: bird's eye speedwell (Veronica persica Poir.), Vp; assay: Test Example 3: herbicidal effect on upland weeds before emergence; settings: dosage 5 kg/ha
In short: (§3)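 Read-out is the weed-killing rate, scored fourteen days after a single spray application made before the weeds emerged. The spray was a liquid agent carrying the active compound at a prescribed dose.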

[4] = test system: barnyard grass (Echinochloa crus-galli Beauv.), Ec; assay: as above; settings: dosage 5 kg/ha
In short: as §3

[5] = test system: forxtail grass (Alopecurus aequalis var. amurensis Ohwi), Am; assay: as above; settings: foxtail grass, dosage 5 kg/ha
In short: as §3

[6] = test system: cocklebur (Xanthium strumarium L.), Xs; assay: as above; settings: dosage 5 kg/ha
In short: as §3

[7] = test system: velvetleaf (Abutilon theophtasti L.), At; assay: as above; settings: dosage 5 kg/ha
In short: as §3

[8] = test system: cleavers (Galium aparine L.), Ga; assay: as above; settings: dosage 5 kg/ha
In short: as §3

soybean plant = assay: Test Example 4: phytotoxicity to upland crop plants, treatment after emergence; settings: dosage 5 kg/ha, sprayed after emergence, judged 14 days after treatment
In short: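 Weeds and soybean grown in soil-filled vats to set leaf stages, then sprayed post-emergence with the compound at a prescribed concentration. Weed-killing rate and crop phytotoxicity judged 14 days after treatment.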

wheat = assay: as above; settings: dosage 5 kg/ha, sprayed after emergence, judged 14 days after treatment
In short: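 Post-emergence foliar spray, compound at prescribed concentration, applied at defined leaf stages; weeds plus soybean/wheat grown in soil vats. Read-out: weed-killing rate and crop injury, 14 d post-treatment.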

[9] = test system: monochoria (Monochoria vaginalis Presl); assay: Test Example 2: herbicidal effect on paddy field weeds after emergence; settings: Dosage 5 kg/ha; one-leaved stage; 21 days after treatment
In short: (§4)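 Weeds in flooded paddy-soil pots were grown to the one-leaved stage, then the soil was treated with the compound solution at a set dosage.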

[10] = test system: barnyard grass (Echinochloa crus-galli Beauv.); assay: as above; settings: Dosage 5 kg/ha; one-leaved stage; 21 days after treatment
In short: as §4

[11] = test system: bulrush (Scirpus juncoides Roxb.); assay: as above; settings: Dosage 5 kg/ha; one-leaved stage; 21 days after treatment
In short: as §4

[12] = test system: bird's eye speedwell (Veronica persica Poir.), Vp; assay: Test Example 4: herbicidal effect on upland weeds after emergence; settings: dosage 5 kg/ha; sprayed after emergence; judged 14 days after treatment
In short: (§5)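 Seeds sown in soil and covered. Plants raised to specified leaf stages. Agent with test compound at a prescribed concentration sprayed. Herbicidal effect and crop damage scored after 14 days as weed-killing rate.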

[13] = test system: barnyard grass (Echinochloa crus-galli Beauv.), Ec; assay: as above; settings: dosage 5 kg/ha; sprayed after emergence; judged 14 days after treatment
In short: as §5

[14] = test system: forxtail grass (Alopecurus aequalis var. amurensis Ohwi), Am; assay: as above; settings: dosage 5 kg/ha; sprayed after emergence; judged 14 days after treatment
In short: as §5

[15] = test system: cocklebur (Xanthium strumarium L.), Xs; assay: as above; settings: dosage 5 kg/ha; sprayed after emergence; judged 14 days after treatment
In short: as §5

[16] = test system: velvetleaf (Abutilon theophtasti L.), At; assay: as above; settings: dosage 5 kg/ha; sprayed after emergence; judged 14 days after treatment
In short: as §5

[17] = test system: cleavers (Galium aparine L.), Ga; assay: as above; settings: dosage 5 kg/ha; sprayed after emergence; judged 14 days after treatment
In short: as §5

| Compound | Phytotoxicity Wh (wheat (Wh)) | Phytotoxicity So (soybean plant (So)) | Pre-emergence treatment Barnyard grass (herbicidal effect) [1] | Pre-emergence treatment Bulrush (herbicidal effect) [2] | Herbicidal effect Vp [3] | Herbicidal effect Ec [4] | Herbicidal effect Am [5] | Herbicidal effect Xs [6] | Herbicidal effect At [7] | Herbicidal effect Ga [8] | Phytotoxicity So (soybean plant) | Phytotoxicity Wh (wheat) | Post-emergence treatment Monochoria (herbicidal effect) [9] | Post-emergence treatment Barnyard grass (herbicidal effect) [10] | Post-emergence treatment Bulrush (herbicidal effect) [11] | Herbicidal effect Vp [12] | Herbicidal effect Ec [13] | Herbicidal effect Am [14] | Herbicidal effect Xs [15] | Herbicidal effect At [16] | also measured |
| --- | --- | --- | --- | --- | --- | --- | --- | --- | --- | --- | --- | --- | --- | --- | --- | --- | --- | --- | --- | --- | --- |
| CCCNC(=O)c1nc2cnn(C)c2cc1C(=O)Nc1c(CC)ccc(Cl)c1CC [compound 1173] | 5 (Crop-killing rate is 100%.) | 5 (Crop-killing rate is 100%.) | 5 (Weed-killing rate is 100%.) | 5 (Weed-killing rate is 100%.) | 5 (Weed-killing rate is 100%.) | 5 (Weed-killing rate is 100%.) | 5 (Weed-killing rate is 100%.) | 5 (Weed-killing rate is 100%.) | 5 (Weed-killing rate is 100%.) | 5 (Weed-killing rate is 100%.) | 5 (Crop-killing rate is 100%.) | 5 (Crop-killing rate is 100%.) | 5 (Weed-killing rate is 100%.) | 5 (Weed-killing rate is 100%.) | 5 (Weed-killing rate is 100%.) | 5 (Weed-killing rate is 100%.) | 5 (Weed-killing rate is 100%.) | 5 (Weed-killing rate is 100%.) | 5 (Weed-killing rate is 100%.) | 5 (Weed-killing rate is 100%.) | Herbicidal effect Ga [17]: 5 (Weed-killing rate is 100%.) |
| CCCNC(=O)c1nc2c(C)nn(C)c2cc1C(=O)Nc1c(CC)ccc(Cl)c1CC [compound 1197] | 5 (Crop-killing rate is 100%.) | 5 (Crop-killing rate is 100%.) | 5 (Weed-killing rate is 100%.) | 5 (Weed-killing rate is 100%.) | 5 (Weed-killing rate is 100%.) | 5 (Weed-killing rate is 100%.) | 5 (Weed-killing rate is 100%.) | 5 (Weed-killing rate is 100%.) | 5 (Weed-killing rate is 100%.) | 5 (Weed-killing rate is 100%.) | 5 (Crop-killing rate is 100%.) | 5 (Crop-killing rate is 100%.) | 5 (Weed-killing rate is 100%.) | 5 (Weed-killing rate is 100%.) | 5 (Weed-killing rate is 100%.) | 5 (Weed-killing rate is 100%.) | 5 (Weed-killing rate is 100%.) | 5 (Weed-killing rate is 100%.) | 5 (Weed-killing rate is 100%.) | 5 (Weed-killing rate is 100%.) | Herbicidal effect Ga [17]: 5 (Weed-killing rate is 100%.) |
| CCCNC(=O)c1nc2ncn(C)c2cc1C(=O)Nc1c(CC)ccc(Cl)c1CC [compound 1209] | 5 (Crop-killing rate is 100%.) | 5 (Crop-killing rate is 100%.) | 5 (Weed-killing rate is 100%.) | 5 (Weed-killing rate is 100%.) | 5 (Weed-killing rate is 100%.) | 5 (Weed-killing rate is 100%.) | 5 (Weed-killing rate is 100%.) | 5 (Weed-killing rate is 100%.) | 5 (Weed-killing rate is 100%.) | 5 (Weed-killing rate is 100%.) | 5 (Crop-killing rate is 100%.) | 5 (Crop-killing rate is 100%.) | 5 (Weed-killing rate is 100%.) | 5 (Weed-killing rate is 100%.) | 5 (Weed-killing rate is 100%.) | 5 (Weed-killing rate is 100%.) | 5 (Weed-killing rate is 100%.) | 5 (Weed-killing rate is 100%.) | 5 (Weed-killing rate is 100%.) | 5 (Weed-killing rate is 100%.) | Herbicidal effect Ga [17]: 5 (Weed-killing rate is 100%.) |
| CCCNC(=O)c1nc2nc(C)n(C)c2cc1C(=O)Nc1c(CC)ccc(Cl)c1CC [compound 1233] | 5 (Crop-killing rate is 100%.) | 5 (Crop-killing rate is 100%.) | 5 (Weed-killing rate is 100%.) | 5 (Weed-killing rate is 100%.) | 5 (Weed-killing rate is 100%.) | 5 (Weed-killing rate is 100%.) | 5 (Weed-killing rate is 100%.) | 5 (Weed-killing rate is 100%.) | 5 (Weed-killing rate is 100%.) | 5 (Weed-killing rate is 100%.) | 5 (Crop-killing rate is 100%.) | 5 (Crop-killing rate is 100%.) | 5 (Weed-killing rate is 100%.) | 5 (Weed-killing rate is 100%.) | 5 (Weed-killing rate is 100%.) | 5 (Weed-killing rate is 100%.) | 5 (Weed-killing rate is 100%.) | 5 (Weed-killing rate is 100%.) | 5 (Weed-killing rate is 100%.) | 5 (Weed-killing rate is 100%.) | Herbicidal effect Ga [17]: 5 (Weed-killing rate is 100%.) |
| CCCNC(=O)c1nc2ocnc2cc1C(=O)Nc1c(CC)ccc(Cl)c1CC [compound 1245] | 5 (Crop-killing rate is 100%.) | 5 (Crop-killing rate is 100%.) | 5 (Weed-killing rate is 100%.) | 5 (Weed-killing rate is 100%.) | 5 (Weed-killing rate is 100%.) | 5 (Weed-killing rate is 100%.) | 5 (Weed-killing rate is 100%.) | 5 (Weed-killing rate is 100%.) | 5 (Weed-killing rate is 100%.) | 5 (Weed-killing rate is 100%.) | 5 (Crop-killing rate is 100%.) | 5 (Crop-killing rate is 100%.) | 5 (Weed-killing rate is 100%.) | 5 (Weed-killing rate is 100%.) | 5 (Weed-killing rate is 100%.) | 5 (Weed-killing rate is 100%.) | 5 (Weed-killing rate is 100%.) | 5 (Weed-killing rate is 100%.) | 5 (Weed-killing rate is 100%.) | 5 (Weed-killing rate is 100%.) | Herbicidal effect Ga [17]: 5 (Weed-killing rate is 100%.) |
